Assay results published in publication PMC11047712, “Synergistic Antioxidant and Anti-Inflammatory Effects of Phenolic Acid-Conjugated Glutamine–Histidine–Glycine–Valine (QHGV) Peptides Derived from Oysters (Crassostrea talienwhanensis)” (Antioxidants, 2024).

Experiments:
[1] = system: inducible nitric oxide synthase (iNos) mRNA; assay: iNos mRNA expression in LPS-induced RAW 264.7 cells (qRT-PCR); assay type: cell-based, murine; conditions: peptide 500 μM pretreated 2 h, LPS 0.1 μg/mL 24 h, normalized to Gapdh, n = 3
Description: (§2) The peptide and control groups were pretreated with 500 and 0 μM of the peptide solution, respectively, for 2 h, followed by stimulation with 0.1 μg/mL of LPS for 24 h. Total cellular RNA was isolated using the RNeasy Mini Kit (Qiagen, Santa Clara, CA, USA). Total RNA was used to synthesize complementary DNA (cDNA) using the PrimeScript™ 1st strand cDNA synthesis kit (TaKaRa, Kusatsu, Japan). […] The mRNA levels of iNos, Cox-2, and Col1a1 were normalized to that of Gapdh, which is a housekeeping gene. The mRNA levels were quantified using the 2^-ddCt method based on the Ct values.

[2] = system: cyclooxygenase-2 (Cox-2) mRNA; assay: Cox-2 mRNA expression in LPS-induced RAW 264.7 cells (qRT-PCR); assay type: cell-based, murine; conditions: peptide 500 μM pretreated 2 h, LPS 0.1 μg/mL 24 h, normalized to Gapdh, n = 3
Description: as §2

[3] = ABTS radical scavenging activity test; assay type: biochemical; conditions: for Anti-oxidant Rank (ABTS radical scavenging activity rank) / IC50: Table S1; for Anti-oxidant Rank (ABTS radical scavenging activity rank): rank by IC50, 1 = most active; for IC50: tested 0.000001-1 mM, calculated by GraphPad Prism 5, unit inferred; for IC50 / ABTS radical scavenging activity: 5 min at room temperature, absorbance 734 nm; for ABTS antioxidant activity (in words): various concentrations between 0.000001 and 1 mM; for ABTS radical scavenging activity: 0.01 mM, n = 3
Description: The ABTS radical cation solution was prepared by mixing 1 mL of a 14 mM ABTS solution and 1 mL of 4.9 mM potassium persulfate. The mixture reacted in the dark at room temperature for 16 h. The ABTS solution was diluted with PBS (1:50, v/v), and 190 μL of it reacted with 10 μL of the sample solution in a 96-well plate at room temperature for 5 min. The absorbance at 734 nm was measured using a SpectraMax iD3 microplate reader (Molecular Devices, San Jose, CA, USA), and the ABTS radical scavenging activity rate was calculated using the following equation:ABTS radical scavenging activity (%) = 1 − (absorbance of sample/absorbance of water) × 100

HaCaT cells = assay: Cell viability (MTT assay) in HaCaT cells; assay type: cell-based, human; conditions: 0.032-500 µM, 24 h
Description: Cell viability was assessed using an MTT assay. HaCaT cells (1.0 × 10^4 cells/mL) were seeded in a 96-well plate and cultured for 24 h. Thereafter, the cells were treated with the peptide solution (0–500 µM) for 24 h. […] The MTT solution was prepared by dissolving it in phosphate-buffered saline (PBS) at a concentration of 5 mg/mL. 10 μL of the prepared MTT solution was added to each well, and the plate was incubated for 4 h. After removing the culture medium, 200 μL of dimethyl sulfoxide (DMSO) was added to each well to solubilize any deposited formazan. The absorbance at 560 nm was measured using an Epoch microplate Spectrophotometer (BioTek, Winooski, VT, USA).

[4] = system: collagen type I alpha 1 chain (Col1a1) mRNA; assay: Collagen I (Col1a1) mRNA level in HaCaT cells (RT-PCR); assay type: cell-based, human; conditions: peptide 500 μM, normalized to Gapdh, n = 3
Description: The peptide and control groups were pretreated with 500 and 0 μM of the peptide solution, respectively, for 2 h, followed by stimulation with 0.1 μg/mL of LPS for 24 h. Total cellular RNA was isolated using the RNeasy Mini Kit (Qiagen, Santa Clara, CA, USA). Total RNA was used to synthesize complementary DNA (cDNA) using the PrimeScript™ 1st strand cDNA synthesis kit (TaKaRa, Kusatsu, Japan). The sequences of oligonucleotide primers for amplifying inducible nitric oxide synthase (iNos), cyclooxygenase-2 (Cox-2), and collagen type I alpha 1 chain (Col1a1) synthesized from Bioneer (Daejeon, Republic of Korea) and glyceraldehyde-3-phosphate dehydrogenase (Gapdh) synthesized from Macrogen (Seoul, Republic of Korea) are listed in Table 1. […] The mRNA levels of iNos, Cox-2, and Col1a1 were normalized to that of Gapdh, which is a housekeeping gene. The mRNA levels were quantified using the 2^-ddCt method based on the Ct values.

[5] = system: collagen I (COL1A1) protein; assay: Collagen I (COL1A1) protein level in HaCaT cells (Western blot); assay type: cell-based, human; conditions: peptide 500 µM, 24 h, Western blot densitometry normalized to GAPDH, n = 3
Description: (§1) HaCaT (3.0 × 10^5 cells/well) and RAW 264.7 (1.5 × 10^5 cells/well) cells were seeded in the wells of a six-well plate. HaCaT and RAW 264.7 cells were treated with the peptide solutions (500 µM) for 24 and 2 h, respectively, and then stimulated with LPS (0.1 μg/mL) for 15 min. The cells were then washed with cold PBS and lysed in a cold lysis buffer. Cell debris was removed after centrifugation at 12,000× g for 30 min at 4 °C. Protein concentration was determined using the bicinchoninic acid (BCA) protein assay. The four-times-concentrated protein-denaturing buffer (1.25 M Tris-HCl (pH 6.8), glycerol, SDS, 2-mercaptoethanol, and 0.4% bromophenol blue) was added to the cell lysate and the mixture was boiled at 100 °C for 5 min. Proteins were separated by electrophoresis on 10% (for MAPKs) or 12% (for collagen) sodium dodecyl sulfate-polyacrylamide gel and electroblotted onto polyvinylidene fluoride membranes. The membranes were blocked with 5% skimmed milk in Tris-buffered saline–Tween (TBS-T) at room temperature for 1 h. After washing, the membranes were incubated overnight in respective primary antibody solutions (anti-phospho-ERK, anti-phospho-JNK, anti-phospho-p38, anti-collagen I, anti-GAPDH or anti-β-actin antibodies) at 4 °C. The membranes were washed with TBS-T and incubated with a horseradish peroxidase-conjugated secondary antibody solution for 1 h at room temperature. They were washed again with TBS-T and PBS and developed using an enhanced chemiluminescence reagent. Images of the immunoblots were scanned with an iBright™ CL1500 Imaging System (Thermo Fisher Scientific, Waltham, MA, USA). The band intensities of phospho-ERK, phospho-JNK, phospho-p38, and collagen I proteins were quantified by densitometric analysis using the ImageJ software 1.8.0 (National Institutes of Health, NIH, Bethesda, MD, USA). To normalize for protein loading, antibodies against β-actin and GAPDH were used, and phospho-ERK 1/2, phospho-JNK, and phospho-p38 phosphorylation levels were expressed relative to those of ERK, p38, and JNK, respectively. The levels of collagen I were normalized to those of GAPDH. Images of raw Western blots are shown in the Supplementary Data.

phospho-ERK 1/2 = assay: LPS-induced phosphorylation of ERK in RAW 264.7 cells (Western blot); assay type: cell-based, murine; conditions: peptide 500 µM 2 h, LPS 0.1 μg/mL 15 min, densitometry relative to ERK, n = 3
Description: as §1

phospho-JNK = assay: LPS-induced phosphorylation of JNK in RAW 264.7 cells (Western blot); assay type: cell-based, murine; conditions: peptide 500 µM 2 h, LPS 0.1 μg/mL 15 min, densitometry relative to JNK, n = 3
Description: as §1, with “HaCaT and RAW 264.7 cells were treated with the peptide solutions (500 µM) for 24 and 2 h, respectively, and then stimulated with LPS (0.1 μg/mL) for 15 min.” left out, “The four-times-concentrated protein-denaturing buffer (1.25 M Tris-HCl (pH 6.8), glycerol, SDS, 2-mercaptoethanol, and 0.4% bromophenol blue) was added to the cell lysate and the mixture was boiled at 100 °C for 5 min. Proteins were separated by electrophoresis on 10% (for MAPKs) or 12% (for collagen) sodium dodecyl sulfate-polyacrylamide gel and electroblotted onto polyvinylidene fluoride membranes.” left out, “To normalize for protein loading, antibodies against β-actin and GAPDH were used, and phospho-ERK 1/2, phospho-JNK, and phospho-p38 phosphorylation levels were expressed relative to those of ERK, p38, and JNK, respectively.” left out

phospho-p38 = assay: LPS-induced phosphorylation of p38 in RAW 264.7 cells (Western blot); assay type: cell-based, murine; conditions: peptide 500 µM 2 h, LPS 0.1 μg/mL 15 min, densitometry relative to p38, n = 3
Description: HaCaT (3.0 × 10^5 cells/well) and RAW 264.7 (1.5 × 10^5 cells/well) cells were seeded in the wells of a six-well plate. HaCaT and RAW 264.7 cells were treated with the peptide solutions (500 µM) for 24 and 2 h, respectively, and then stimulated with LPS (0.1 μg/mL) for 15 min. The cells were then washed with cold PBS and lysed in a cold lysis buffer. Cell debris was removed after centrifugation at 12,000× g for 30 min at 4 °C. Protein concentration was determined using the bicinchoninic acid (BCA) protein assay. The four-times-concentrated protein-denaturing buffer (1.25 M Tris-HCl (pH 6.8), glycerol, SDS, 2-mercaptoethanol, and 0.4% bromophenol blue) was added to the cell lysate and the mixture was boiled at 100 °C for 5 min. Proteins were separated by electrophoresis on 10% (for MAPKs) or 12% (for collagen) sodium dodecyl sulfate-polyacrylamide gel and electroblotted onto polyvinylidene fluoride membranes. The membranes were blocked with 5% skimmed milk in Tris-buffered saline–Tween (TBS-T) at room temperature for 1 h. […] The band intensities of phospho-ERK, phospho-JNK, phospho-p38, and collagen I proteins were quantified by densitometric analysis using the ImageJ software 1.8.0 (National Institutes of Health, NIH, Bethesda, MD, USA). […]

[6] = DPPH radical scavenging activity test; assay type: biochemical; conditions: various concentrations; 0.1 mM DPPH, 30 min in the dark at room temperature, absorbance 517 nm
Description: The DPPH method is based on a mechanism similar to the ABTS method. […] In a 96-well plate, 100 μL of the DPPH solution and 100 μL of the sample were treated and incubated at room temperature in the dark for 30 min. Absorbance at 517 nm was then measured using a SpectraMax iD3 microplate reader (Molecular Devices, San Jose, CA, USA). The solvents used for the samples were methanol for peptide samples and ethanol for phenolic acid samples.

| Molecule | reduction of LPS-induced iNos mRNA level [1] | reduction of LPS-induced Cox-2 mRNA level [2] | Anti-oxidant Rank (ABTS radical scavenging activity rank) [3] | IC50 [3] [µM] | increase of collagen I protein level [5] [%] | ABTS radical scavenging activity [3] [%] | decrease of p-ERK level (phospho-ERK 1/2) | also measured |
| --- | --- | --- | --- | --- | --- | --- | --- | --- |
| glycyl-L-histidyl-L-lysine-Cu (II) [GHK-Cu, reference compound] | 45% | 24% | – | – | – | – | – | – |
| O=C(O)c1cc(O)c(O)c(O)c1 [Gallic acid, gallic acid, reference compound] | – | – | 1 | 2.49 | – | – | – | ABTS antioxidant activity (in words) [3]: highest antioxidant activity |
| QHGV [glutamine–histidine–glycine–valine] | reduced | reduced | 8 | – | 147 | – | – | ABTS antioxidant activity (in words) [3]: did not exhibit high antioxidant activity; cytotoxicity (in words) (HaCaT cells): no cytotoxicity; increase of collagen I mRNA level compared with the negative control group [4]: 26% |
| N-(1-oxohexadecyl) glycyl-L-histidyl-L-lysine [PTP-1, reference compound] | – | – | – | – | – | – | – | increase of collagen I mRNA level compared with the negative control group [4]: 135% |
| β-alanyl-L-histidine [carnosine, reference compound] | no significant effect | no significant effect | – | – | – | – | – | – |
| sinapoyl-QHGV [Si-QHGV] | did not significantly affect | 15% | – | – | 363 | 27 | 5% | – |
| feruloyl-QHGV [Fe-QHGV] | did not significantly affect | 11% | 6 | 17.8 | 457 | 31 | – | decrease of p-JNK level (phospho-JNK): 23% |
| O=C1O[C@H]([C@@H](O)CO)C(O)=C1O [L-ascorbic acid, reference compound] | – | – | 7 | 23.8 | – | 20 | – | – |
| C[C@@H]1C[C@H]2[C@@H]3CCC4=CC(=O)C=C[C@]4(C)[C@@]3(F)[C@@H](O)C[C@]2(C)[C@@]1(O)C(=O)CO [DEX, Dexamethasone, reference compound] | approximately 80% | ~91% | – | – | – | – | markedly reduced | decrease of p-JNK level (phospho-JNK): markedly reduced; decrease of p-p38 level (phospho-p38): markedly reduced |
| COc1cc(C(=O)O)ccc1O [vanillic acid, reference compound] | – | – | – | – | – | – | – | DPPH radical scavenging activity (in words) [6]: weak antioxidant activity |
| caffeoyl-QHGV [Ca-QHGV] | 26% | 8% | 5 | 16.7 | 316 | 33 | 9% | decrease of p-JNK level (phospho-JNK): 10%; decrease of p-p38 level (phospho-p38): 5% |
| vanilloyl-QHGV [Va-QHGV] | did not significantly affect | 16% | 4 | 16.4 | 163 | 34 | 24% | DPPH radical scavenging activity (in words) [6]: did not exhibit antioxidant effects |
| γ-L-glutamyl-L-cysteinyl-glycine [Glutathione, reference compound] | – | – | 3 | 14.7 | – | – | – | – |
